Experimental data reported in patent US20250035641A1, “COMPOSITIONS AND METHODS RELATED TO PROTEIN LABELING” (The Chinese University of Hong Kong, priority 2023, published 2025).
“Also recorded” adds a separate entry of the source.

How the values were obtained:
Assay type in all cases: cell-based
[1] = test system: cellular global O-GlcNAc level; assay: Global (pan-RL2) O-GlcNAc level by immunoblot
From the text: After illustrating the potency and generality of the OGTAC strategy, we then assessed its specificity towards the global O-GlcNAc proteome. We quantified the total pan-O-GlcNAc level (except for the specific band for target POI) using immunoblotting. For well-validated OGT substrates such as CK2α relatively low fOGT protein amount is sufficient to facilitate the inducing effect of our OGTAC-1. […] HTN-BRD4:fOGT=1:0.01 condition is not sufficient for OGTAC to exert inducing effects even though ternary complex was formed (FIG. 15). We hypothesize that an optimal threshold of OGT protein levels is required for efficient O-GlcNAc transfer to BRD4. To address the trade-off between potency and specificity on BRD4, we developed a truncated fOGT system. The tetratricopeptide repeat (TPR) domain of fOGT is responsible for substrate recognition; truncation of TPR domain can reduce its activity towards protein substrates. We therefore constructed and compared several truncated fOGT (tfOGT) plasmids.
(§1) In general, cells (from 12 well plate) were lysed by 80 μl RIPA lysis buffer (Thermo Scientic 89901) supplemented with 20 μM OGA inhibitor (Thaimet G, Bidepharm BD571819) and 100X protease inhibitor (MedChemExpress, HY-K0010), incubated on ice for 20 min, spun down at 14,000 RPM at 4° C. for 15 mins, and the supernatant were collected for bicinchoninic acid (BCA) assay and normalizedeto a final 2 mg/mL concentration. About 30 μg of protein samples were loaded for sodium dodecyl sulfatepolyacrylamide gel electrophoresis (SDS-PADE) and blotted with indicated antibodies.

HTN-BRD4 = molecular target: T1, HTN-BRD4 (Homo sapiens, UniProt O60885+P62942, F37V); assay: IP-WB of HTN-BRD4 O-GlcNAcylation (RL2) in HEK293T cells co-expressing fOGT; conditions: for region of induced HTN-BRD4 O-GlcNAcylation: HTN-BRD4:fOGT=1:0.05, truncated/mutant constructs
T1 construct: HaloTag fragment; expressed in transfected cells; host or cells: HEK293T
Experimental: We next assess their potency in inducing HTN-BRD4 O-GlcNAcylation in cell. […]
For each IP reaction, 2.2×10^6 HEK293T cells were seed in 10 cm dish. After cells attached, transfection reagents and plasmids were prepared and added in DMEM. After 24 h transfection, media were replaced by fresh warm complete media with DMSO or probes. For washout study, after 4 h treatment, media with DMSO or OGTAC-4 (500 nM) were replaced by fresh media with DMSO or AP1867 (50 μM) for further incubation. After certain time of OGTACs treatment, cells were collected by cold PBS and lysed by 200 μL complete IP lysis buffer. The lysate was incubated on ice for 20 min, spun down at 14,000 RPM at 4° C. for 15 mins, and the supernatant were collected for bicinchoninic acid (BCA) assay and normalized to a final 2 mg/mL. For input, 20 μL of diluted sample was reacted with equal volume of 10 μM TMR ligand in IP lysis buffer and rotate gently at RT for 15 mins. The remaining samples were subjected to protein A/G magnetic beads (MedChemExpress, HY-K0202), which pre-binding with protein target protein antibody. For samples for LC-MS/MS or HTN-BRD4 mutant constructs. Halo-Trap Magnetic Agarose (Proteintech, otma) was used to incubate with protein lysates. After gentle rotation at 4° C. for at least 16 h, the beads were washed with IP lysis buffer and boiled in 40 μL 2×SDS-loading buffer (Biorad #1610747) for 5 mins to elute proteins from beads. Eluted samples were directly subjected into WB analysis.
as §1

HTN-CK2α = HTN-CK2α (Homo sapiens, UniProt P68400); assay: O-GlcNAcylation of HTN-CK2α with 0tfOGT; design: 0TPR(463-1046)-; expressed in transfected cells; conditions: vs negative control OGTAC-1H
Experimental: FIGS. 18A and 18B: Immunoblotting analysis of the global O-GlcNAcylation inducing effect of truncated OGTAC-4 and OGTAC-1 on HTN-BRD4 and HTN-CK2α respectively. (A), O-GlcNAcylation inducing effect of OGTAC-4 is dependent on the expression of 0tfOGT. […] The quantification was conducted by immunoblot signal of probe treatment/control as the mean±s.e.m. of n=2 biologically independent experiments. TR, transfection reagent.

T1 sequence (P62942 whole entry F37V, stated change not applied, other chains not shown, the tested form may be a part): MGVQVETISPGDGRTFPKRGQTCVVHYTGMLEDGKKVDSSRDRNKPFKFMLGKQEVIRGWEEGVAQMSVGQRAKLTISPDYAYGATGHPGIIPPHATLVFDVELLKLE
Chain of HTN-CK2α (P68400 with tags, fused parts or gaps): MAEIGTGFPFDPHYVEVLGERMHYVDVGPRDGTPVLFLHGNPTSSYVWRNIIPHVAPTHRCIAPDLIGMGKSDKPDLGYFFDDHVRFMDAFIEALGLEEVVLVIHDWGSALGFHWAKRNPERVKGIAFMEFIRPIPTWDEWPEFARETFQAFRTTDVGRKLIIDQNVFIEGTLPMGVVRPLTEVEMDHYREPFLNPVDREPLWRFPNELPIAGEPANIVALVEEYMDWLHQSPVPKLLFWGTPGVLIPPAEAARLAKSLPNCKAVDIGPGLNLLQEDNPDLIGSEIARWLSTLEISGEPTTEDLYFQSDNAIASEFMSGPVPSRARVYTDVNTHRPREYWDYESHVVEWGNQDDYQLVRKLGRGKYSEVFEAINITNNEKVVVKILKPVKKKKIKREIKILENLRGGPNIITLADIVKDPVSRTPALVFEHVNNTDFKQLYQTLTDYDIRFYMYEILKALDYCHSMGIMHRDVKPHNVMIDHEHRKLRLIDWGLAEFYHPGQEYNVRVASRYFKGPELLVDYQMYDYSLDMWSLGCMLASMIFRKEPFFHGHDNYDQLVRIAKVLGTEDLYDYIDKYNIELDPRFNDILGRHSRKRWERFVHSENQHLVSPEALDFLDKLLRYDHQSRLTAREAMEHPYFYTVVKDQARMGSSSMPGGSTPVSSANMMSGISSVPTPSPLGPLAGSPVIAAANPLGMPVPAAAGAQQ
Chain of HTN-CK2α (P62942+O15294 fused P62942:F37V partner): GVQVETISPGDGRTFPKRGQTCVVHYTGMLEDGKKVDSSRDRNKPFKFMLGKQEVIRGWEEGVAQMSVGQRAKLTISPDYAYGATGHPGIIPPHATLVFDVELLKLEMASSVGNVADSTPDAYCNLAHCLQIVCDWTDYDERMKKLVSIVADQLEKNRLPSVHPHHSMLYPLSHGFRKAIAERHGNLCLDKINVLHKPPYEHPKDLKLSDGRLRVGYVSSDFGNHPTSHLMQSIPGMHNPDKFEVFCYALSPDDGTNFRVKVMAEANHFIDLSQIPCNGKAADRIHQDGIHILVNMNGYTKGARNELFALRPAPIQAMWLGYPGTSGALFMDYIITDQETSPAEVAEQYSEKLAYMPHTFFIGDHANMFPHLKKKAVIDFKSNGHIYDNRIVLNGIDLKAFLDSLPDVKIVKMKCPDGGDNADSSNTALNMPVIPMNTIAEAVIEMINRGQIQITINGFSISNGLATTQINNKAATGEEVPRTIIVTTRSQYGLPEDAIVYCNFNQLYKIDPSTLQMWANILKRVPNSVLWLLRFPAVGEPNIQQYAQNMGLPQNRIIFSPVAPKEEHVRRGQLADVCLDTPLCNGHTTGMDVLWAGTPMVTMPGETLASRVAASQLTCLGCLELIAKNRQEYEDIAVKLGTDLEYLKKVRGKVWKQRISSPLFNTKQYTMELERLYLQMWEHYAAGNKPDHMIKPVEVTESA

efficacy as O-GlcNAcylation inducer (HTN-BRD4) | fold increase of RL2 signal of BRD4 (HTN-BRD4; 640 nM, 2 h) [fold] | fold increase of RL2 signal of BRD4 (HTN-BRD4; 640 nM, 4 h) | concentration from which inducing effect declined (hook effect) (HTN-BRD4; 4 h) [µM] | region of induced HTN-BRD4 O-GlcNAcylation (HTN-BRD4) | O-GlcNAcylation level of HTN-CK2α with 0tfOGT (HTN-CK2α) | time at which O-GlcNAcylation of HTN-BRD4 was induced (HTN-BRD4; 640 nM) [h] | time of peak induction of HTN-BRD4 O-GlcNAcylation (HTN-BRD4; 640 nM, longest time point) [h] | lowest concentration promoting BRD4 O-GlcNAcylation and ternary complex (HTN-BRD4; 4 h, 3 nM conducted once) [nM] | O-GlcNAcylation inducing effect on HTN-BRD4 (HTN-BRD4; HTN-BRD4:fOGT=1:0.01 system) | Structure (SMILES) | cellular global O-GlcNAc level ([1]; 125 nM, HTN-CK2α:fOGT=1:0.01) | pan-RL2 level ([1]; HTN-BRD4:fOGT system, dose-response, 4 h) | HTN-BRD4 O-GlcNAcylation inducing potency (HTN-BRD4; 5 μM, 4 h) | global O-GlcNAc level ([1]; 0tfOGT:HTN-BRD4 system) | global O-GlcNAc levels during reversibility study ([1]; HTN-BRD4:0tfOGT, washout study)
submicromolar efficacy | 2.5 | around 2.8 fold | 1.6 | C-terminal region (S1367-F1224) | higher O-GlcNAcylation level |  |  |  |  | CC[C@H](C(=O)N1CCCC[C@H]1C(=O)O[C@H](CCc1ccc(OC)c(OC)c1)c1cccc(OCC(=O)NCCOCCOCCCCCCCl)c1)c1cc(OC)c(OC)c(OC)c1 [OGTAC-1, (R)-1-(3-(2-((2-(2-((6-chlorohexyl)oxy)ethoxy)ethyl)amino)-2-oxoethoxy)phenyl)-3-(3,4-dimethoxyphenyl)propyl (S)-1-((S)-2-(3,4,5-trimethoxyphenyl)butanoyl) piperidine-2-carboxylate] | not significantly changed | not affected | best O-GlcNAcylation inducing potency among three OGTACs; also recorded: outstanding potency |  | 
submicromolar efficacy |  |  |  | C-terminal region (S1367-F1224) |  | ≤ 2 | 24 | 3 | No O-GlcNAcylation inducing effect | CC[C@H](C(=O)N1CCCC[C@H]1C(=O)O[C@H](CCc1ccc(OC)c(OC)c1)c1cccc(OCC(=O)NCCCCCCNC(=O)C[C@@H]2N=C(c3ccc(Cl)cc3)c3c(sc(C)c3C)-n3c(C)nnc32)c1)c1cc(OC)c(OC)c(OC)c1 [OGTAC-4, (R)-1-(3-(2-((6-(2-((S)-4-(4-chlorophenyl)-2,3,9-trimethyl-6H-thieno[3,2-f[]8 1,2,4]triazolo[4,3-a][1,4]diazepin-6-yl)acetamido)hexyl)amino)-2-oxoethoxy)phenyl)-3-(3,4-dimethoxyphenyl)propyl (S)-1-((S)-2-(3,4,5-trimethoxyphenyl)butanoyl)piperidine-2-carboxylate] |  |  |  | without disruption of global O-GlcNAc level | remained unchanged
